{
  "source": "patent US8088806B2",
  "about": "(Achillion Pharmaceuticals, Inc., priority 2005, dated 2012)",
  "data": [
    {"tested_on": "HCV replicon", "assay": "Replicon based assay of HCV replication inhibition (NPT ELISA)", "format": "cell-based, Hepatitis C virus", "conditions": "Hepatitis C virus, Huh-7, 72 h, Table I; Huh-7 HCV replicon-containing cells, three days; read-out: Activity", "protocol": "(§1) Compounds claimed herein are tested for the ability to inhibit viral replication of the Hepatitis C replicon in cultured cells in which the HCV replicon construct has been incorporated. The HCV replicon system was described by Bartenschlager, et. al (Science, 285, pp. 110-113 (1999)). The replicon system is predictive of in vivo anti-HCV activity; compounds that are active in humans uniformly evidence activity in the replicon assay.\n(§2) In this assay HCV replicon containing cells are treated with different concentrations of the test compound to ascertain the ability of the test compound to suppress replication of the HCV replicon. As a positive control, HCV replicon-containing cells are treated with different concentrations of interferon alpha, a known inhibitor of HCV replication. The replicon assay system includes Neomycin Phosphotransferase (NPT) as a component of the replicon itself in order to detect the transcription of replicon gene products in the host cell. Cells in which the HCV replicon is actively replicating have high levels of NPT; the level of NPT is proportional to HCV replication. […] The NPT level of each sample is measured using a captured ELISA.\n(§3) A protocol for testing compounds for the ability to inhibit viral replication of the Hepatitis C replicon cultured cells in which the replicon construct has been incorporated, follows.\n(§4) The HCV replicon contains, 5′-3′, the HCV-IRES, the neomycin phosphotransferase (neo) gene, the IRES of encephalomyocarditis virus, which directs translation of HCV sequences NS3 to NS5B, and the 3′-NTR. The sequence of the HCV replicon has been deposited in GenBank (Accession no. AJ242652).\n(§5) The replicon is transfected into Huh-7 cells using standard methods such as electroporation.\n(§6) The equipment and materials include, but are not limited to, Huh-7 HCV replicon-containing cells, maintenance media (DMEM (Dulbecco's modified Eagle media) supplemented with 10% FBS, L-glutamine, non-essential amino acids, penicillin (100 units/ml), streptomycin (100 micrograms/ml), and 500 micrograms/ml of Geneticin (G418), screening media (DMEM supplemented with 10% FBS, L-glutamine, non-essential amino acids, penicillin (100 units/ml) and streptomycin (100 micrograms/ml)), 96 well tissue culture plates (flat bottom), 96 well plates (U bottom for drug dilution), Interferon alpha for positive control, fixation reagent (such as methanol: acetone), primary antibody (rabbit anti-NPTII), secondary antibody: Eu-N1l, and enhancement solution.\n(§7) The cells are then seeded onto 96-well plates at a density of 6000-7500 cells/100 microliters/well (6-7.5×10^5 cells/10 ml/plate). The plates are then incubated at 37° C. in a 5% CO2 incubator.\n(§8) HCV replicon-containing cells are rinsed with once PBS once; 2 mls of trypsin are then added. Cells are incubated at 37° C. in a 5% CO2 incubator for 3-5 minutes. 10 mls of complete medium is added to stop the reaction. Cells are blown gently, put into a 15 ml tube, and spun at 1200 rpm for four minutes. The trypsin/medium solution is removed and 5 mls of medium (500 ml DMEM (high glucose)) from BRL catalog #12430-054; 50 mls 10% FBS, 5% Geneticin G418 (50 mg/ml, BRL catalog #10131-035), 5 ml MEM non-essential amino acids (100×BRL #11140-050) and 5 ml pen-strep (BRL # 15140-148) is added. The cells and media are mixed carefully\n(§9) Cells are plated with screening medium (500 ml DMEM (BRL #21063-029), 50 ml FBS (BRL #10082-147) and 5 ml MEM non-essential amino acid (BRL #11140-050) at 6000-7500 cells/100 μl/well of 96 well plate (6-7.5×10^5 cells/10 ml/plate). Plates are placed into 37° C. 5% CO2 incubator overnight.\n(§10) The following morning, drugs (test compounds or interferon alpha) are diluted in 96 well U bottom plates with media or DMSO/media, depending on the final concentration chosen for screening. Generally for 6 concentrations of each test compounds ranging from 10 micromolar to 0.03 micromolar are applied. […]", "units": {"EC50": "nM"}, "values": [
      {"smiles": "CCCCCOc1ccc(Nc2nccs2)cc1C(F)(F)F", "note": "[compound 1, N-(3-(trifluoromethyl)-4-(pentyloxy)phenyl)thiazol-2-amine]", "EC50": "< 1000"},
      {"smiles": "CCCCCOc1ccc(Nc2nc(-c3ccc(F)cc3)cs2)cc1C(F)(F)F", "note": "[compound 2, N-(3-(trifluoromethyl)-4-(pentyloxy)phenyl)-4-(4-fluorophenyl)thiazol-2-amine]", "EC50": "< 1000"},
      {"smiles": "CCCCCOc1ccc(Nc2nc(-c3ccc(OC(F)F)cc3)cs2)cc1C(F)(F)F", "note": "[compound 4, 4-(4-(difluoromethoxy)phenyl)-N-(3-(trifluoromethyl)-4-(pentyloxy)phenyl)thiazol-2-amine]", "EC50": "< 1000"},
      {"smiles": "CCCCCOc1ccc(Nc2nc(C(Cc3ccccc3)NS(=O)(=O)c3ccc(C)cc3)cs2)cc1C(F)(F)F", "note": "(stereo not shown) [compound 6, N-(3-(trifluoromethyl)-4-(pentyloxy)phenyl)-4-(2-phenyl-1-(tosylamino)ethyl)thiazol-2-amine]", "EC50": "1000 to 10000"},
      {"smiles": "CCCCCOc1ccc(Nc2nc(-c3cccnc3)cs2)cc1C(F)(F)F", "note": "[compound 7, N-(3-(trifluorometbyl)-4-(pentyloxy)phenyl)-4-(pyridin-3-yl)thiazol-2-amine]", "EC50": "< 1000"},
      {"smiles": "CCCCCOc1ccc(Nc2nc(-c3ccc(N4CCCC4)cc3)cs2)cc1C(F)(F)F", "note": "[compound 8, N-(3-(trifluoromethyl)-4-(pentyloxy)phenyl)-4-(4-(pyrrolidin-1-yl)phenyl)thiazol-2-amine]", "EC50": "< 1000"},
      {"smiles": "CCCCCOc1ccc(Nc2ncc(Br)s2)cc1C(F)(F)F", "note": "[compound 9, 5-bromo-N-(3-(trifluoromethyl)-4-(pentyloxy)phenyl)thiazol-2-amine]", "EC50": "< 1000"},
      {"smiles": "CCCCCOc1ccc(Nc2nc(C(=O)O)cs2)cc1C(F)(F)F", "note": "[compound 10, 2-(3-(trifluoromethyl)-4-(pentyloxy)phenylamino)thiazole-4-carboxylic acid]", "EC50": "> 10000"},
      {"smiles": "CCCCCOc1ccc(Nc2nc(C(=O)Nc3ccc(Cl)cc3)cs2)cc1C(F)(F)F", "note": "[compound 11, 2-(3-(trifluoromethyl)-4-(pentyloxy)phenylamino)-N-(4-chlorophenyl)thiazole-4-carboxamide]", "EC50": "> 10000"},
      {"smiles": "CCCCCOc1ccc(Nc2nc(-c3ccc(F)cc3)c(C)s2)cc1C(F)(F)F", "note": "[compound 12, N-(3-(trifluoromethyl)-4-(pentyloxy)phenyl)-4-(4-fluorophenyl)-5-methylthiazol-2-amine]", "EC50": "< 1000"},
      {"smiles": "CCCCCOc1ccc(Nc2csc(-c3cccnc3)n2)cc1C(F)(F)F", "note": "[compound 13, N-(3-(trifluoromethyl)-4-(pentyloxy)phenyl)-2-(pyridin-3-yl)thiazol-4-amine]", "EC50": "> 10000"},
      {"smiles": "CCCCCOc1ccc(Nc2nc(C(=O)Nc3cccnc3)cs2)cc1C(F)(F)F", "note": "[compound 14, 2-(3-(trifluoromethyl)-4-(pentyloxy)phenylamino)-N-(pyridin-3-yl)thiazole-4-carboxamide]", "EC50": "< 1000"},
      {"smiles": "CCCCCOc1ccc(Nc2nc(C(=O)Nc3ccc(C#N)cc3)cs2)cc1C(F)(F)F", "note": "[compound 15, 2-(3-(trifluoromethyl)-4-(pentyloxy)phenylamino)-N-(4-cyanophenyl)thiazole-4-carboxamide]", "EC50": "> 10000"},
      {"smiles": "CCCCCOc1ccc(Nc2nc(C(=O)Nc3ccc(OC)cc3)cs2)cc1C(F)(F)F", "note": "[compound 16, 2-(3-(trifluoromethyl)-4-(pentyloxy)phenylamino)-N-(4-methoxyphenyl)thiazole-4-carboxamide]", "EC50": "> 10000"},
      {"smiles": "CCCCCOc1ccc(Nc2nc(C(=O)Nc3ccc(C(C)(C)C)cc3)cs2)cc1C(F)(F)F", "note": "[compound 17, 2-(3-(trifluoromethyl)-4-(pentyloxy)phenylamino)-N-(4-tert-butylphenyl)thiazole-4-carboxamide]", "EC50": "> 10000"},
      {"smiles": "CCCCCOc1ccc(Nc2nc(C(N)=O)cs2)cc1C(F)(F)F", "note": "[compound 18, 2-(3-(trifluoromethyl)-4-(pentyloxy)phenylamino)thiazole-4-carboxamide]", "EC50": "< 1000"},
      {"smiles": "CCCCCc1ccc(Nc2nc(-c3ccc(F)cc3)cs2)cc1", "note": "[compound 19, 4-(4-fluorophenyl)-N-(4-pentylphenyl)thiazol-2-amine]", "EC50": "< 1000"},
      {"smiles": "CCCCCc1ccc(Nc2nc(-c3ccc(Cl)cc3)cs2)cc1", "note": "[compound 20, 4-(4-chlorophenyl)-N-(4-pentylphenyl)thiazol-2-amine]", "EC50": "< 1000"},
      {"smiles": "CCCCCOc1ccc(Nc2nc(-c3ccc(F)cc3)cs2)cc1", "note": "[compound 21, 4-(4-fluorophenyl)-N-(4-(pentyloxy)phenyl)thiazol-2-amine]", "EC50": "< 1000"},
      {"smiles": "CCCCCc1ccc(Nc2nc(-c3ccc(Cl)c(Cl)c3)cs2)cc1", "note": "[compound 22, 4-(3,4-dichlorophenyl)-N-(4-pentylphenyl)thiazol-2-amine]", "EC50": "< 1000"},
      {"smiles": "CCCCCOc1ccc(Nc2nc(-c3ccc(Cl)c(Cl)c3)cs2)cc1", "note": "[compound 24, 4-(3,4-dichlorophenyl)-N-(4-(pentyloxy)phenyl)thiazol-2-amine]", "EC50": "< 1000"},
      {"smiles": "CCCCCOc1ccc(Nc2nc(-c3ccc(Cl)cc3)cs2)cc1", "note": "[compound 26, 4-(4-chlorophenyl)-N-(4-(pentyloxy)phenyl)thiazol-2-amine]", "EC50": "< 1000"},
      {"smiles": "Fc1ccc(-c2csc(Nc3cccc(OCc4ccccc4)c3)n2)cc1", "note": "[compound 27, N-(3-(benzyloxy)phenyl)-4-(4-fluorophenyl)thiazol-2-amine]", "EC50": "< 1000"},
      {"smiles": "Clc1ccc(-c2csc(Nc3cccc(OCc4ccccc4)c3)n2)cc1Cl", "note": "[compound 28, N-(3-(benzyloxy)phenyl)-4-(3,4-dichlorophenyl)thiazol-2-amine]", "EC50": "< 1000"},
      {"smiles": "Clc1ccc(-c2csc(Nc3cccc(OCc4ccccc4)c3)n2)cc1", "note": "[compound 30, N-(3-(benzyloxy)phenyl)-4-(4-chlorophenyl)thiazol-2-amine]", "EC50": "< 1000"},
      {"smiles": "Fc1ccc(-c2csc(Nc3cccc(Oc4ccccc4)c3)n2)cc1", "note": "[compound 31, 4-(4-fluorophenyl)-N-(3-phenoxyphenyl)thiazol-2-amine]", "EC50": "< 1000"},
      {"smiles": "Clc1ccc(-c2csc(Nc3cccc(Oc4ccccc4)c3)n2)cc1Cl", "note": "[compound 32, 4-(3,4-dichlorophenyl)-N-(3-phenoxyphenyl)thiazol-2-amine]", "EC50": "< 1000"},
      {"smiles": "Clc1ccc(-c2csc(Nc3cccc(Oc4ccccc4)c3)n2)cc1", "note": "[compound 34, 4-(4-chlorophenyl)-N-(3-phenoxyphenyl)thiazol-2-amine]", "EC50": "< 1000"},
      {"smiles": "Fc1ccc(-c2csc(Nc3cccc(Cc4ccccc4)c3)n2)cc1", "note": "[compound 35, N-(3-benzylphenyl)-4-(4-fluorophenyl)thiazol-2-amine]", "EC50": "> 10000"},
      {"smiles": "Clc1ccc(-c2csc(Nc3cccc(Cc4ccccc4)c3)n2)cc1Cl", "note": "[compound 36, N-(3-benzylphenyl)-4-(3,4-dichlorophenyl)thiazol-2-amine]", "EC50": "< 1000"},
      {"smiles": "Clc1ccc(-c2csc(Nc3cccc(Cc4ccccc4)c3)n2)cc1", "note": "[compound 38, N-(3-benzylphenyl)-4-(4-chlorophenyl)thiazol-2-amine]", "EC50": "< 1000"},
      {"smiles": "Fc1ccc(-c2csc(Nc3ccc(Cc4ccccc4)cc3)n2)cc1", "note": "[compound 39, N-(4-benzylphenyl)-4-(4-fluorophenyl)thiazol-2-amine]", "EC50": "> 10000"},
      {"smiles": "Clc1ccc(-c2csc(Nc3ccc(Cc4ccccc4)cc3)n2)cc1Cl", "note": "[compound 40, N-(4-benzylphenyl)-4-(3,4-dichlorophenyl)thiazol-2-amine]", "EC50": "> 10000"}
    ]},
    {"tested_on": "HCV replicon", "assay": "Replicon based assay of HCV replication inhibition (NPT ELISA)", "format": "cell-based, Hepatitis C virus", "conditions": "Table I; Huh-7 HCV replicon-containing cells, three days; read-out: Activity", "protocol": "as §1, §2, §3, §4, §5, §6, §7, §8, §9, §10", "units": {"EC50": "nM"}, "values": [
      {"smiles": "CCCCCOc1ccc(Nc2nc(-c3ccc(Cl)cc3)cs2)cc1C(F)(F)F", "note": "[compound 3]", "EC50": "< 1000"}
    ]}
  ]
}
